In patent US20130217664A1, “NOVEL COMPOUNDS USEFUL FOR THE TREATMENT OF DEGENERATIVE AND INFLAMMATORY DISEASES” (priority 2012, published 2013):
Read-outs that look alike come from different tables or passages of the source.

How the values were obtained:
[1] = target: T1, human TYK2 (Homo sapiens, UniProt P29597); experiment: TYK2 inhibition assay; type: biochemical; conditions: recombinant human TYK2 catalytic domain, polyGT substrate
T1 construct: catalytic domain (amino acids 871-1187; catalog number 08-147); purchased Carna Biosciences 08-147
T1 sequence (P29597 871-1187): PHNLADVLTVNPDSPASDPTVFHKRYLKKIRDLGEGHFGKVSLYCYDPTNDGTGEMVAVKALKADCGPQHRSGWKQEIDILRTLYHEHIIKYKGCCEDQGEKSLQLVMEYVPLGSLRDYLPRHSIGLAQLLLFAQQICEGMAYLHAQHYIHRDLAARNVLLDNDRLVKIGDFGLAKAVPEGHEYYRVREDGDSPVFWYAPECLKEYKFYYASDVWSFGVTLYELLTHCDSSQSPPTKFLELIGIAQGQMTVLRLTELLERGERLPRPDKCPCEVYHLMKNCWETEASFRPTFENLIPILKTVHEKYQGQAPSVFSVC
Procedure, shortened: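 Radiometric kinase reaction run 90 min at 30 °C, stopped with phosphoric acid, washed and scintillation-counted.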

[2] = tested on: BA/F3 cell line; experiment: BA/F3 viability assay; conditions: Mus musculus, BaF3, 48 h, read-out: BA/F3 IC50
[3] = target: T2, human JAK1 (Homo sapiens, UniProt P23458); experiment: JAK1 inhibition assay (polyGT substrate / Ulight-JAK1 peptide); type: biochemical; conditions: recombinant human JAK1 catalytic domain; polyGT or Ulight-JAK1 peptide assay
T2 construct: catalytic domain, amino acids 866-1154; catalog number PV4774; purchased Invitrogen PV4774
T2 sequence (P23458 866-1154): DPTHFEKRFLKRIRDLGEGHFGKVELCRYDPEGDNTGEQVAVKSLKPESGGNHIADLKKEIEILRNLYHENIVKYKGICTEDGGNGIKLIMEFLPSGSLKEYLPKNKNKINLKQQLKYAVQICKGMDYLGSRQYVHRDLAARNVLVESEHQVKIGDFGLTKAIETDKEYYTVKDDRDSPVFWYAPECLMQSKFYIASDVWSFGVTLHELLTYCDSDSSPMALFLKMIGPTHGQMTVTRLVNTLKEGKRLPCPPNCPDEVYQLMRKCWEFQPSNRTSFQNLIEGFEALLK
Procedure, shortened: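 Two formats. PolyGT radiometric: 45 min at 30 °C, stopped with phosphoric acid, counted as cpm. Ulight-JAK1 peptide: 60 min at room temperature, stopped with Eu-anti-phosphotyrosine/EDTA, read as RFU. Percent inhibition normalised to vehicle and 10 μM staurosporine.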

[4] = target: T3, human JAK2 (Homo sapiens, UniProt O60674); experiment: JAK2 inhibition assay (polyGT substrate / Ulight-JAK1 peptide); type: biochemical; conditions: recombinant human JAK2 catalytic domain; polyGT or Ulight-JAK1 peptide assay
T3 construct: catalytic domain (amino acids 808-1132; catalog number PV4210); GST; purchased Invitrogen PV4210
T3 sequence (O60674 808-1132): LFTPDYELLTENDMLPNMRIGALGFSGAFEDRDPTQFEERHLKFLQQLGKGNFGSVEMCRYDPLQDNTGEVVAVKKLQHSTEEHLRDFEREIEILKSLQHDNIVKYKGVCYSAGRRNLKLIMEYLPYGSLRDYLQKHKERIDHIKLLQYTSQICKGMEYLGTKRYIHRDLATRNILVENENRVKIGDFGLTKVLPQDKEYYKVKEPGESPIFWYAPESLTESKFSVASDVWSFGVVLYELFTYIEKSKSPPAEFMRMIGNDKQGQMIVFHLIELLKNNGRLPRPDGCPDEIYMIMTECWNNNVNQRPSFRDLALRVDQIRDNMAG
Procedure, shortened: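 Radiometric: 0.025 mU JAK2 with 2.5 μg polyGT, 1 μM ATP plus ^33P-ATP in MOPS pH 7.5 buffer, 1% DMSO, 90 min at 30° C.; filter counting. Alternative TR-FRET format with Ulight-JAK1 peptide, 60 min at room temperature, Eu-anti-phosphotyrosine detection.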

[5] = target: T4, human JAK3 (Homo sapiens, UniProt P52333); experiment: JAK3 inhibition assay; type: biochemical; conditions: recombinant human JAK3 catalytic domain; polyGT substrate
T4 construct: catalytic domain (amino acids 781-1124; catalog number PV3855); purchased Invitrogen PV3855
T4 sequence (P52333 781-1124): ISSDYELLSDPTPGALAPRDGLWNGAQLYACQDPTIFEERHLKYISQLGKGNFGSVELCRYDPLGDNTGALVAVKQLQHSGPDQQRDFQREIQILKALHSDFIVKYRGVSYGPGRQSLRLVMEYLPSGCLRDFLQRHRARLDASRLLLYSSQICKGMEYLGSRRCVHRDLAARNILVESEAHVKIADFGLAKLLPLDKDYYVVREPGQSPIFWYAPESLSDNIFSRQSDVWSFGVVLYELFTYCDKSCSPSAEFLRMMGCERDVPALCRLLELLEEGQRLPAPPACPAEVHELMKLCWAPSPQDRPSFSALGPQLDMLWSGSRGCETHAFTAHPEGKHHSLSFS
Procedure, shortened: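 Radiometric kinase assay: 0.5 ng JAK3 with 2.5 μg polyGT in Tris pH 7.5/MgCl2 buffer, 1 μM ATP plus 0.25 μCi 33P-γ-ATP, 1% DMSO, 45 min at 30 °C, stopped with phosphoric acid.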

[6] = tested on: CTLL-2 cell line; experiment: CTLL2 viability assay; type: cell-based; conditions: Mus musculus, IL-2 dependent CTLL2 viability, 24 h, ATP-lite
Source text: The protocol describes the methods to analyse the activity of compounds on their ability to sustain the IL2-dependent viability of CTLL2.
Final DMSO concentration was 0.1%.

[7] = tested on: pSTAT1(2)-luciferase reporter in HeLa cells triggered with human OSM; experiment: JAK-STAT signalling assay; type: cell-based; conditions: HeLa cells, pSTAT1(2)-luciferase reporter, human OSM 33 ng/mL, read-out: JAK-STAT IC50
Procedure, shortened: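 HeLa cells transiently co-transfected with pSTAT1(2)-luciferase and LacZ control reporter, preincubated with compound 60 min, then stimulated with human OSM (33 ng/mL final) overnight at 37 °C. Luciferase read by luminescence; percent inhibition from vehicle and no-trigger controls, EC50 from dose-response.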

SMILES: CCc1cc(N2CC(C#N)C2)ncc1N(C)c1cc2c(cn1)ncn2C [Compound 402, 1-{4-Ethyl-5-[methyl-(1-methyl-1H-imidazo[4,5-c]pyridin-6-yl)-amino]-pyridin-2-yl}-azetidine-3-carbonitrile]
- IC50 [1]: 0.01 to 100 nM
- IC50 [2]: 1000 to 5000 nM
- IC50 [3]: 0.01 to 100 nM
- IC50 [4]: 0.01 to 100 nM
- IC50 [5]: 101 to 500 nM
- IC50 [6]: > 1000 nM

SMILES: CCc1cc(CN(C)S(C)(=O)=O)cc(F)c1N(C)c1cc2c(cn1)ncn2C [Compound 356, N-{3-Ethyl-5-fluoro-4-[methyl-(1-methyl-M-imidazo[4,5-c]pyridin-6-yl)-amino]-benzyl}-N-methyl-methanesulfonamide]
- IC50 [1]: 0.01 to 100 nM
- IC50 [2]: 1000 to 5000 nM
- IC50 [3]: 0.01 to 100 nM
- IC50 [4]: 0.01 to 100 nM
- IC50 [5]: 0.01 to 100 nM
- IC50 [6]: 501 to 1000 nM

SMILES: CN(c1cc2c(cn1)ncn2C)c1ccc(C2CN(CC(F)(F)F)C2)cc1OC(F)F [Compound 364, {2-Difluoromethoxy-4-[1-(2,2,2-trifluoro-ethyl)-azetidin-3-yl]-phenyl}-methyl-(1-methyl-1H-imidazo[4,5-c]pyridin-6-yl)-amine]
- IC50 [1]: > 1000 nM
- IC50 [2]: > 5000 nM
- IC50 [3]: 0.01 to 100 nM
- IC50 [4]: 101 to 500 nM
- IC50 [5]: 101 to 500 nM
- IC50 [6]: > 1000 nM

SMILES: CCc1cc(C2(CCNS(C)(=O)=O)COC2)ccc1N(C)c1cc2c(cn1)ncn2C [Compound 392, N-[2-(3-{3-Ethyl-4-[methyl-(1-methyl-1H-imidazo[4,5-c]pyridin-6-yl)-amino]-phenyl}-oxetan-3-yl)-ethyl]-methanesulfonamide]
- IC50 [1]: 0.01 to 100 nM
- IC50 [2]: > 5000 nM
- IC50 [3]: 0.01 to 100 nM
- IC50 [4]: 0.01 to 100 nM
- IC50 [5]: 101 to 500 nM
- IC50 [6]: > 1000 nM

SMILES: CCc1cc(C(C#N)N2CC(C#N)C2)ccc1N(C)c1cc2c(cn1)ncn2C (stereo not shown) [Compound 391, 1-(Cyano-{3-ethyl-4-[methyl-(1-methyl-1H-imidazo[4,5-c]pyridin-6-yl)-amino]-phenyl}-methyl)-azetidine-3-carbonitrile]
- IC50 [1]: 0.01 to 100 nM
- IC50 [2]: 1000 to 5000 nM
- IC50 [3]: 0.01 to 100 nM
- IC50 [4]: 0.01 to 100 nM
- IC50 [5]: 101 to 500 nM
- IC50 [6]: > 1000 nM

SMILES: CCc1cc(C(CC#N)NS(C)(=O)=O)ccc1N(C)c1cc2c(cn1)ncn2C (stereo not shown) [Compound 387, N-(2-Cyano-1-{3-ethyl-4-[methyl-(1-methyl-1H-imidazo[4,5-c]pyridin-6-yl)-amino]-phenyl}-ethyl)-methanesulfonamide]
- IC50 [1]: 101 to 500 nM
- IC50 [2]: > 5000 nM
- IC50 [3]: 0.01 to 100 nM
- IC50 [4]: 101 to 500 nM
- IC50 [5]: 101 to 500 nM
- IC50 [6]: > 1000 nM

SMILES: CCc1cc(C2CN(C(=O)C(F)F)C2)ccc1N(C)c1cc2c(cn1)ncn2C [Compound 346, 1-(3-{3-Ethyl-4-[methyl-(1-methyl-1H-imidazo[4,5-c]pyridin-6-yl)-amino]-phenyl)-azetidin-1-yl)-2,2-difluoro-ethanone]
- IC50 [1]: 0.01 to 100 nM
- IC50 [2]: > 5000 nM
- IC50 [3]: 0.01 to 100 nM
- IC50 [4]: 0.01 to 100 nM
- IC50 [5]: 101 to 500 nM
- IC50 [6]: > 1000 nM

SMILES: CCc1cc(CN(CC#N)S(C)(=O)=O)ncc1N(C)c1cc2c(cn1)ncn2C [Compound 344, N-Cyanomethyl-N-{4-ethyl-5-[methyl-(1-methyl-1H-imidazo[4,5-c]pyridin-6-yl)-amino]-pyridin-2-ylmethyl}-methanesulfonamide]
- IC50 [1]: 101 to 500 nM
- IC50 [2]: > 5000 nM
- IC50 [3]: 0.01 to 100 nM
- IC50 [4]: 101 to 500 nM
- IC50 [5]: 0.01 to 100 nM
- IC50 [6]: > 1000 nM

SMILES: CCc1cc(CN2CC(F)(F)C2)ccc1N(C)c1cc2c(cn1)ncn2C [Compound 378, [4-(3,3-Difluoro-azetidin-1-ylmethyl)-2-ethyl-phenyl]-methyl-(1-methyl-1H-imidazo[4,5-c]pyridin-6-yl)-amine]
- IC50 [2]: > 5000 nM
- IC50 [6]: > 1000 nM

SMILES: CCc1cc(C(N)=O)ccc1N(C)c1cc2c(cn1)ncn2C [Compound 137, 3-Ethyl-4-(methyl(1-methyl-1H-imidazo[4,5-c]pyridin-6-yl)amino)benzamide]
- IC50 ([7]; Homo sapiens, HeLa): 501 to 1000 nM
- IC50 [6]: > 1000 nM

SMILES: CCc1cc(-c2cncc(F)c2)ccc1N(C)c1cc2c(cn1)ncn2C [Compound 133, N-(2-ethyl-4-(5-fluoropyridin-3-yl)phenyl)-N,1-dimethyl-1H-imidazo[4,5-c]pyridin-6-amine]
- IC50 [1]: 101 to 500 nM
- IC50 [2]: > 5000 nM
- IC50 [3]: 0.01 to 100 nM
- IC50 ([7]; Homo sapiens, HeLa): 1 to 500 nM
- IC50 [5]: 501 to 1000 nM

SMILES: CN(c1cc2c(cn1)ncn2C)c1ccc(CNS(C)(=O)=O)cc1F [Compound 269, N-(3-Fluoro-4-(methyl(1-methyl-1H-imidazo[4,5-c]pyridin-6-yl)amino)benzyl)methanesulfonamide]
- IC50 [1]: 0.01 to 100 nM
- IC50 [2]: > 5000 nM
- IC50 [3]: 0.01 to 100 nM
- IC50 ([7]; Homo sapiens, HeLa): 501 to 1000 nM
- IC50 [5]: 101 to 500 nM

SMILES: CCc1cc(C2CCN(C(=O)C(F)F)CC2)ccc1N(C)c1cc2c(cn1)ncn2C [Compound 225, 1-(4-(3-ethyl-4-(methyl(1-methyl-1H-imidazo[4,5-c]pyridin-6-yl)amino)phenyl)piperidin-1-yl)-2,2-difluoroethanone]
- IC50 [1]: 0.01 to 100 nM
- IC50 [2]: 1000 to 5000 nM
- IC50 [3]: 0.01 to 100 nM
- IC50 [7]: 501 to 1000 nM
- IC50 [5]: 0.01 to 100 nM

SMILES: CCc1cc(CN(C)S(C)(=O)=O)ccc1N(C)c1cc2c(cn1)ncn2C [Compound 261, N-(3-ethyl-4-(methyl(1-methyl-1H-imidazo[4,5-c]pyridin-6-yl)amino)benzyl)-N-methylmethanesulfonamide]
- IC50 [1]: 0.01 to 100 nM
- IC50 [2]: 1000 to 5000 nM
- IC50 [3]: 0.01 to 100 nM
- IC50 [5]: 0.01 to 100 nM
- IC50 [6]: 501 to 1000 nM

SMILES: CCOC(=O)C1CN(C(C#N)c2ccc(N(C)c3cc4c(cn3)ncn4C)c(CC)c2)C1 (stereo not shown) [Compound 453, 1-(Cyano-{3-ethyl-4-[methyl-(1-methyl-1H-imidazo[4,5-c]pyridin-6-yl)-amino]-phenyl}-methyl)-azetidine-3-carboxylic acid ethyl ester]
- IC50 [1]: 0.01 to 100 nM
- IC50 [3]: 0.01 to 100 nM
- IC50 [4]: 0.01 to 100 nM
- IC50 [5]: 501 to 1000 nM
- IC50 [6]: > 1000 nM

SMILES: CCc1cc(C2CCC2)ncc1N(C)c1cc2c(cn1)ncn2C [Compound 434, (6-Cyclobutyl-4-ethyl-pyridin-3-yl)-methyl-(1-methyl-1H-imidazo[4,5-c]pyridin-6-yl)-amine]
- IC50 [1]: 101 to 500 nM
- IC50 [3]: 0.01 to 100 nM
- IC50 [4]: 101 to 500 nM
- IC50 [5]: > 1000 nM
- IC50 [6]: > 1000 nM

SMILES: CCc1cc(C(C#N)N2CCC(O)CC2)ccc1N(C)c1cc2c(cn1)ncn2C (stereo not shown) [Compound 447, {3-Ethyl-4-[methyl-(1-methyl-1H-imidazo[4,5-c]pyridin-6-yl)-amino]-phenyl}-(4-hydroxy-piperidin-1-yl)-acetonitrile]
- IC50 [1]: 0.01 to 100 nM
- IC50 [3]: 0.01 to 100 nM
- IC50 [4]: 0.01 to 100 nM
- IC50 [5]: 101 to 500 nM
- IC50 [6]: > 1000 nM

SMILES: CCc1cc(C2=CCN(C(=O)C(C)O)CC2)ccc1N(C)c1cc2c(cn1)ncn2C (stereo not shown) [Compound 201, 1-(4-(3-ethyl-4-(methyl(1-methyl-1H-imidazo[4,5-c]pyridin-6-yl)amino)phenyl)-5,6-dihydropyridin-1(2H)-yl)-2-hydroxypropan-1-one]
- IC50 [1]: 0.01 to 100 nM
- IC50 [3]: 0.01 to 100 nM
- IC50 ([7]; Homo sapiens, HeLa): 1 to 500 nM
- IC50 [5]: 101 to 500 nM
- IC50 [6]: 501 to 1000 nM

SMILES: CCc1cc(C(C#N)N2CC[C@@H](OC)C2)ccc1N(C)c1cc2c(cn1)ncn2C (stereo partly drawn) [Compound 448, {3-Ethyl-4-[methyl-(1-methyl-1H-imidazo[4,5-c]pyridin-6-yl)-amino]-phenyl}-((R)-3-methoxy-pyrrolidin-1-yl)-acetonitrile]
- IC50 [1]: 0.01 to 100 nM
- IC50 [3]: 0.01 to 100 nM
- IC50 [4]: 0.01 to 100 nM
- IC50 [5]: 101 to 500 nM
- IC50 [6]: > 1000 nM
